Reference: the supplement of paper PMC10307832

What was measured:
Assay in all cases: relative viability (nuclei count vs DMSO), 5 days (fraction); higher = more cells survive
Dovitinib + OSI-027 = compound: CN1CCN(c2ccc3nc(-c4c(N)c5c(F)cccc5[nH]c4=O)[nH]c3c2)CC1 [Dovitinib] + COc1cccc2cc(-c3nc([C@H]4CC[C@H](C(=O)O)CC4)n4ncnc(N)c34)[nH]c12 [OSI-027] (partner 0.5 µM)
How it was run: (§1)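 After 5 days of treatment, lung cancer cells in 1536-well plates were fixed and stained in a single step (final 0.05% Triton X-100, 1% formaldehyde, 1 ug/ml Hoechst) and their nuclei counted on 4× images. Treatment had been applied by pin tool the day after seeding as one drug alone or as a fixed anchor-drug dose with five library-drug doses (not always all listed) in √10 steps. Relative viability is the nuclei count of treated wells divided by that of vehicle wells, and values are medians of duplicate plates.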

Dovitinib + Lapatinib = compound: CN1CCN(c2ccc3nc(-c4c(N)c5c(F)cccc5[nH]c4=O)[nH]c3c2)CC1 [Dovitinib] + CS(=O)(=O)CCNCc1ccc(-c2ccc3ncnc(Nc4ccc(OCc5cccc(F)c5)c(Cl)c4)c3c2)o1 [Lapatinib] (partner 2 µM)
How it was run: as §1

Dovitinib + Linsitinib = compound: CN1CCN(c2ccc3nc(-c4c(N)c5c(F)cccc5[nH]c4=O)[nH]c3c2)CC1 [Dovitinib] + C[C@]1(O)C[C@@H](c2nc(-c3ccc4ccc(-c5ccccc5)nc4c3)c3c(N)nccn32)C1 [Linsitinib] (partner 1 µM)
How it was run: as §1

Dovitinib + Alpelisib = compound: CN1CCN(c2ccc3nc(-c4c(N)c5c(F)cccc5[nH]c4=O)[nH]c3c2)CC1 [Dovitinib] + Cc1nc(NC(=O)N2CCC[C@H]2C(N)=O)sc1-c1ccnc(C(C)(C)C(F)(F)F)c1 [Alpelisib] (partner 2 µM)
How it was run: as §1

Cell Line	relative viability (Dovitinib + OSI-027; first compound 0.02 µM)	relative viability (Dovitinib + OSI-027; first compound 0.06325 µM)	relative viability (Dovitinib + OSI-027; first compound 0.2 µM)	relative viability (Dovitinib + OSI-027; first compound 0.6325 µM)	relative viability (Dovitinib + OSI-027; first compound 2 µM)	relative viability (Dovitinib + Lapatinib; first compound 0.02 µM)	relative viability (Dovitinib + Lapatinib; first compound 0.2 µM)	relative viability (Dovitinib + Lapatinib; first compound 0.6325 µM)	relative viability (Dovitinib + Lapatinib; first compound 2 µM)	relative viability (Dovitinib + Linsitinib; first compound 0.02 µM)	relative viability (Dovitinib + Linsitinib; first compound 0.2 µM)	relative viability (Dovitinib + Linsitinib; first compound 0.6325 µM)	relative viability (Dovitinib + Linsitinib; first compound 2 µM)	relative viability (Dovitinib + Alpelisib; first compound 0.02 µM)	relative viability (Dovitinib + Alpelisib; first compound 0.2 µM)	relative viability (Dovitinib + Alpelisib; first compound 0.6325 µM)	relative viability (Dovitinib + Alpelisib; first compound 2 µM)	relative viability (Dovitinib + Lapatinib; first compound 0.06325 µM)	relative viability (Dovitinib + Linsitinib; first compound 0.06325 µM)	relative viability (Dovitinib + Alpelisib; first compound 0.06325 µM)
HCC-78	0.384	0.544	0.373	0.403	0.388	0.539	0.901	1.03	0.663	0.693	0.626	0.478	0.532	0.422	0.384	0.364	0.316	–	–	–
HCC-366	0.807	0.829	0.848	0.914	0.791	0.892	1.03	1.07	1.01	0.645	0.549	0.665	0.592	0.545	0.478	0.505	0.446	1.08	0.584	0.393
HCC-827	0.797	0.791	0.818	0.833	0.759	0.191	0.216	0.202	0.191	0.895	0.959	0.928	0.898	0.931	0.918	0.987	1.03	0.171	0.97	0.926
HOP-62	0.794	0.79	0.866	0.925	0.855	0.876	1	1.24	1.1	0.784	1.1	0.921	1.03	0.804	1.27	0.896	0.829	0.999	0.852	0.844
IA-LM	–	–	–	–	–	1.07	0.709	0.648	0.821	0.602	0.627	0.614	0.547	0.732	0.854	0.911	0.765	0.693	0.544	0.78
LC-2-ad	0.879	0.929	0.984	0.744	0.831	0.772	1.04	1.02	0.686	0.798	0.84	0.782	0.773	0.873	0.728	0.8	0.74	0.962	0.919	0.833
LCLC-97TM1	0.77	0.486	0.561	0.59	0.544	0.835	1.02	0.602	1.03	0.216	0.201	0.152	0.213	0.222	0.171	0.247	0.276	0.752	0.21	0.23
LCLC-103H	0.415	0.477	0.523	0.452	0.479	–	–	–	–	1.09	1.03	1.08	1.04	0.875	0.918	1.06	0.761	–	0.988	0.973
LK-2	0.187	0.192	0.202	0.252	0.173	0.878	0.858	0.83	0.709	0.688	0.484	0.608	0.565	1.22	0.974	0.959	0.628	0.914	0.604	1.06
LOU-NH91	0.786	0.662	0.731	0.817	0.721	0.794	0.717	0.858	0.726	0.984	0.968	1	1.05	0.818	0.714	0.75	0.765	0.675	0.915	0.73
LU99A	0.257	0.283	0.327	0.3	0.316	0.943	1.08	0.937	0.922	0.482	0.521	0.515	0.506	0.492	0.43	0.461	0.559	0.985	0.571	0.561
LXF-289	0.771	0.813	0.952	0.873	0.744	0.813	0.88	0.867	0.873	0.907	0.935	0.939	0.878	1.01	1.02	1.03	0.926	0.904	0.942	1.02
NCI-H441	0.639	0.565	0.682	0.61	0.644	–	–	–	–	0.512	0.541	0.599	0.499	0.787	0.909	0.548	0.566	–	0.537	0.902
NCI-H522	0.685	0.721	0.654	0.768	0.686	–	–	–	–	–	–	–	–	–	–	–	–	–	–	–
NCI-H1299	–	–	–	–	–	0.948	0.966	0.892	0.966	0.913	0.959	0.951	0.976	0.984	1.02	1.04	1.09	1	0.954	1.02
NCI-H1648	0.236	0.251	0.291	0.307	0.252	–	–	–	–	–	–	–	–	–	–	–	–	–	–	–
NCI-H1650	0.687	0.619	0.621	0.711	0.768	0.656	0.792	0.743	0.875	–	–	–	–	–	–	–	–	0.698	–	–
NCI-H1703	–	–	–	–	–	1.17	0.788	0.784	0.42	0.853	0.671	0.533	0.403	0.291	0.346	0.264	0.276	0.955	0.868	0.418
NCI-H2170	0.572	0.711	0.718	0.708	0.723	0.291	0.273	0.267	0.277	–	–	–	–	0.672	0.889	0.77	0.83	0.243	–	0.807
NCI-H2342	0.634	0.579	0.603	0.685	0.722	–	–	–	–	–	–	–	–	–	–	–	–	–	–	–
SW 900	0.465	0.556	0.616	0.54	0.62	–	–	–	–	–	–	–	–	–	–	–	–	–	–	–
